Each structure is given as a SMILES string. pIC50, pKi: −log10 of the molar value. Where a name gives a salt, the structure may show the parent alone. Some results are limits rather than exact numbers.

For the first assay, the target named is PLK1 (Homo sapiens, UniProt P53350). Briefly: PLK1 protein kinase assay (CDC25C phosphorylation, [γ-32P]-ATP). In kind it is biochemical. As to conditions: Table 3; read-out: PLK1 IC50.
Chain of PLK1 (P53350 whole entry): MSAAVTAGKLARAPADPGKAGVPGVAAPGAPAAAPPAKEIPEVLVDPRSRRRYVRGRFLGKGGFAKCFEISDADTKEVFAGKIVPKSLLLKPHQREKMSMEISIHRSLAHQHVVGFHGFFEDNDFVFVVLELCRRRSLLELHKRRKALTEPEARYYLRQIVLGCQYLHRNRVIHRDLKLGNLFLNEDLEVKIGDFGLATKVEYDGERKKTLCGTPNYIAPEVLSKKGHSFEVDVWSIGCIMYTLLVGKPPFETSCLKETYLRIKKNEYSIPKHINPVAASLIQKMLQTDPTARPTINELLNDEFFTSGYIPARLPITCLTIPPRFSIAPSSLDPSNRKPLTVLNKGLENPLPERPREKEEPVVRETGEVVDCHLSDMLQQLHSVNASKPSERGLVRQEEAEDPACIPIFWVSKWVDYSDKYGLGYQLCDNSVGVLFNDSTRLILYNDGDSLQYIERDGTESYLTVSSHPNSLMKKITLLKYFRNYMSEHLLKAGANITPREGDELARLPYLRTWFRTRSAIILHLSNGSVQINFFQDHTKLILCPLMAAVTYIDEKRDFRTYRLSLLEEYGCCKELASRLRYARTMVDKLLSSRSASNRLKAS
Take `COc1cc(C(=O)N[C@H]2CC[C@H](N3CCN(CC4CC4)CC3)CC2)ccc1Nc1ncc2c(n1)N(C1CCCC1)CC1(CC1)C(=O)N2C` [Compound 371, 4-(9′-cyclopentyl-5′-methyl-6′-oxo-5′,6′,8′,9′-tetrahydrospiro[cyclopropane-1,7′-pyrimido[4,5-b][1,4]diazepine]-2′-ylamino)-N-((trans)-4-(4-(cyclopropylmethyl)piperazin-1-yl)cyclohexyl)-3-methoxybenzamide]: the pIC50 – broadly, the IC50 on a negative log10 scale, so that one unit is a factor of ten – is over 7.00.

In the case of `CN1CCN(NC(=O)c2ccc(Nc3ncc4c(n3)N(C3CCCC3)CC3(CCC3)C(=O)N4C)c(F)c2)CC1` [Compound 373, 4-(9′-cyclopentyl-5′-methyl-6′-oxo-5′,6′,8′,9′-tetrahydrospiro[cyclobutane-1,7′-pyrimido[4,5-b][1,4]diazepine]-2′-ylamino)-3-fluoro-N-(4-methylpiperazin-1-yl)benzamide], the pIC50 is over 7.00.

As for `CN1CCN(NC(=O)c2ccc(Nc3ncc4c(n3)N(C3CCCC3)CC3(CC3)C(=O)N4C)c(F)c2)CC1` [Compound 374, 4-(9′-Cyclopentyl-5′-methyl-6′-oxo-5′,6′,8′,9′-tetrahydrospiro[cyclopropane-1,7′-pyrimido[4,5-b][1,4]diazepine]-2′-ylamino)-3-fluoro-N-(4-methylpiperazin-1-yl)benzamide], the negative logarithm of the IC50 (pIC50) is over 7.00.

As to `COc1cc(C(=O)NN2CCN(CCO)CC2)ccc1Nc1ncc2c(n1)N(C1CCCC1)CC1(CC1)C(=O)N2C` [Compound 375, 4-(9′-Cyclopentyl-5′-methyl-6′-oxo-5′,6′,8′,9′-tetrahydrospiro[cyclopropane-1,7′-pyrimido[4,5-b][1,4]diazepine]-2′-ylamino)-N-(4-(2-hydroxyethyl)piperazin-1-yl)-3-methoxybenzamide], the pIC50 is over 7.00.

For `COc1cc(C(=O)NN2CCOCC2)ccc1Nc1ncc2c(n1)N(C1CCCC1)CC1(CC1)C(=O)N2C` [Compound 376, 4-(9′-Cyclopentyl-5′-methyl-6′-oxo-5′,6′,8′,9′-tetrahydrospiro[cyclopropane-1,7′-pyrimido[4,5-b][1,4]diazepine]-2′-ylamino)-3-methoxy-N-morpholinobenzamide], the pIC50 is over 7.00.

As to `COc1cc(C(=O)N[C@H]2CC[C@H](N3CCN(CC4CC4)CC3)CC2)ccc1Nc1ncc2c(n1)N(C1CCCC1)CC1(CCC1)C(=O)N2C` [Compound 377, 4-(9′-cyclopentyl-5′-methyl-6′-oxo-5′,6′,8′,9′-tetrahydrospiro[cyclobutane-1,7′-pyrimido[4,5-b][1,4]diazepine]-2′-ylamino)-N-((trans)-4-(4-(cyclopropylmethyl)piperazin-1-yl)cyclohexyl)-3-methoxybenzamide], the negative-log IC50 (pIC50) is over 7.00.

Turning to `COc1cc(C(=O)N[C@H]2CC[C@H](N3CCN(CC4CC4)CC3)CC2)ccc1Nc1ncc2c(n1)N(C1CCCC1)CCC(=O)N2C` [Compound 378, 4-(9-cyclopentyl-5-methyl-6-oxo-6,7,8,9-tetrahydro-5H-pyrimido[4,5-b][1,4]diazepin-2-ylamino)-N-((trans)-4-(4-(cyclopropylmethyl)piperazin-1-yl)cyclohexyl)-3-methoxybenzamide], the pIC50 is over 7.00.

For the compound `CCN1CCN([C@H]2CC[C@H](NC(=O)c3ccc(Nc4ncc5c(n4)N(C4CCCC4)CC4(CC4)C(=O)N5C)c(OC)c3)CC2)CC1` [Compound 379, 4-(9′-cyclopentyl-5′-methyl-6′-oxo-5′,6′,8′,9′-tetrahydrospiro[cyclopropane-1,7′-pyrimido[4,5-b][1,4]diazepine]-2′-ylamino)-N-((trans)-4-(4-ethylpiperazin-1-yl)cyclohexyl)-3-methoxybenzamide], the pIC50 was over 7.00.

Turning to `CCN1CCN([C@H]2CC[C@@H](NC(=O)c3ccc(Nc4ncc5c(n4)N(C4CCCC4)CC4(CC4)C(=O)N5C)c(OC)c3)CC2)CC1` [Compound 380, 4-(9′-cyclopentyl-5′-methyl-6′-oxo-5′,6′,8′,9′-tetrahydrospiro[cyclopropane-1,7′-pyrimido[4,5-b][1,4]diazepine]-2′-ylamino)-N-((cis)-4-(4-ethylpiperazin-1-yl)cyclohexyl)-3-methoxybenzamide], the pIC50 is over 7.00.

`COc1cc(C(=O)NC2CCC(N3CCCN(CC4CC4)CC3)CC2)ccc1Nc1ncc2c(n1)N(C1CCCC1)CC1(CC1)C(=O)N2C` (stereo not drawn) [Compound 381, 4-(9′-cyclopentyl-5′-methyl-6′-oxo-5′,6′,8′,9′-tetrahydrospiro[cyclopropane-1,7′-pyrimido[4,5-b][1,4]diazepine]-2′-ylamino)-N-(4-(4-(cyclopropylmethyl)-1,4-diazepan-1-yl)cyclohexyl)-3-methoxybenzamide]: the pIC50 is over 7.00.

`CCN1CCCN(C2CCC(NC(=O)c3ccc(Nc4ncc5c(n4)N(C4CCCC4)CC4(CC4)C(=O)N5C)c(OC)c3)CC2)CC1` (stereo not drawn) [Compound 382, 4-(9′-cyclopentyl-5′-methyl-6′-oxo-5′,6′,8′,9′-tetrahydrospiro[cyclopropane-1,7′-pyrimido[4,5-b][1,4]diazepine]-2′-ylamino)-N-(4-(4-ethyl-1,4-diazepan-1-yl)cyclohexyl)-3-methoxybenzamide]: the pIC50 is over 7.00.

`COc1cc(C(=O)NC2CCC(N3CCCN(Cc4ccccc4)CC3)CC2)ccc1Nc1ncc2c(n1)N(C1CCCC1)CC1(CC1)C(=O)N2C` (stereo not drawn) [Compound 383, N-(4-(4-benzyl-1,4-diazepan-1-yl)cyclohexyl)-4-(9′-cyclopentyl-5′-methyl-6′-oxo-5′,6′,8′,9′-tetrahydrospiro[cyclopropane-1,7′-pyrimido[4,5-b][1,4]diazepine]-2′-ylamino)-3-methoxybenzamide]: the pIC50 was 6.00 to 7.00.

As for `COc1cc(C(=O)N[C@H]2CC[C@H](N3CCN(C)CC3)CC2)ccc1Nc1ncc2c(n1)N(C1CCCC1)CC1(CC1)C(=O)N2C` [Compound 384, 4-(9′-cyclopentyl-5′-methyl-6′-oxo-5′,6′,8′,9′-tetrahydrospiro[cyclopropane-1,7′-pyrimido[4,5-b][1,4]diazepine]-2′-ylamino)-N-((trans)-4-(4-methylpiperazin-1-yl)cyclohexyl)-3-methoxybenzamide], the pIC50 is over 7.00.

Regarding `COc1cc(C(=O)N[C@H]2CC[C@@H](N3CCN(C)CC3)CC2)ccc1Nc1ncc2c(n1)N(C1CCCC1)CC1(CC1)C(=O)N2C` [Compound 385, 4-(9′-cyclopentyl-5′-methyl-6′-oxo-5′,6′,8′,9′-tetrahydrospiro[cyclopropane-1,7′-pyrimido[4,5-b][1,4]diazepine]-2′-ylamino)-N-((cis)-4-(4-methylpiperazin-1-yl)cyclohexyl)-3-methoxybenzamide], the pIC50 is over 7.00.

In the case of `COc1cc(C(=O)N[C@H]2CC[C@H](N3CCN(Cc4ccccc4)CC3)CC2)ccc1Nc1ncc2c(n1)N(C1CCCC1)CC1(CC1)C(=O)N2C` [Compound 386, N-((trans)-4-(4-benzylpiperazin-1-yl)cyclohexyl)-4-(9′-cyclopentyl-5′-methyl-6′-oxo-5′,6′,8′,9′-tetrahydrospiro[cyclopropane-1,7′-pyrimido[4,5-b][1,4]diazepine]-2′-ylamino)-3-methoxybenzamide], the pIC50 is over 7.00.

As for `COc1cc(C(=O)N[C@H]2CC[C@@H](N3CCN(Cc4ccccc4)CC3)CC2)ccc1Nc1ncc2c(n1)N(C1CCCC1)CC1(CC1)C(=O)N2C` [Compound 387, N-((cis)-4-(4-benzylpiperazin-1-yl)cyclohexyl)-4-(9′-cyclopentyl-5′-methyl-6′-oxo-5′,6′,8′,9′-tetrahydrospiro[cyclopropane-1,7′-pyrimido[4,5-b][1,4]diazepine]-2′-ylamino)-3-methoxybenzamide], the negative-log IC50 (pIC50) is 6.00 to 7.00.

As to `COc1cc(C(=O)N[C@H]2CC[C@H](N3CCOCC3)CC2)ccc1Nc1ncc2c(n1)N(C1CCCC1)CC(C)(C)C(=O)N2C` [Compound 388, 4-(9-cyclopentyl-5,7,7-trimethyl-6-oxo-6,7,8,9-tetrahydro-5H-pyrimido[4,5-b][1,4]diazepin-2-ylamino)-3-methoxy-N-((trans)-4-morpholinocyclohexyl)benzamide], the pIC50 was over 7.00.

Regarding `COc1cc(C(=O)N[C@H]2CC[C@@H](N3CCOCC3)CC2)ccc1Nc1ncc2c(n1)N(C1CCCC1)CC(C)(C)C(=O)N2C` [Compound 389, 4-(9-cyclopentyl-5,7,7-trimethyl-6-oxo-6,7,8,9-tetrahydro-5H-pyrimido[4,5-b][1,4]diazepin-2-ylamino)-3-methoxy-N-((cis)-4-morpholinocyclohexyl)benzamide], the pIC50 was 6.00 to 7.00.

As to `COc1cc(C(=O)N[C@H]2CC[C@H](N3CCOCC3)CC2)ccc1Nc1ncc2c(n1)N(C1CCCC1)CC1(CC1)C(=O)N2C` [Compound 390, 4-(9′-cyclopentyl-5′-methyl-6′-oxo-5′,6′,8′,9′-tetrahydrospiro[cyclopropane-1,7′-pyrimido[4,5-b][1,4]diazepine]-2′-ylamino)-3-methoxy-N-((trans)-4-morpholinocyclohexyl)benzamide], the pIC50 was over 7.00.

With `COc1cc(C(=O)N[C@H]2CC[C@@H](N3CCOCC3)CC2)ccc1Nc1ncc2c(n1)N(C1CCCC1)CC1(CC1)C(=O)N2C` [Compound 391, 4-(9′-cyclopentyl-5′-methyl-6′-oxo-5′,6′,8′,9′-tetrahydrospiro[cyclopropane-1,7′-pyrimido[4,5-b][1,4]diazepine]-2′-ylamino)-3-methoxy-N-((cis)-4-morpholinocyclohexyl)benzamide], the pIC50 is over 7.00.

Still in this assay, the particulars now being: Table 4; read-out: PLK1 IC50.
Turning to `COc1cc(C(=O)NC2CCN(C)CC2)ccc1Nc1ncc2c(n1)N(C1CCCC1)CC1(CCC1)C(=O)N2C` [WO 2007/095188 [I-64], reference compound], the pIC50 is over 7.00.

As to `COc1cc(C(=O)NC2CCN(C)CC2)ccc1Nc1ncc2c(n1)N(C1CCCC1)CC1(CC1)C(=O)N2C` [WO 2007/095188 [I-76], reference compound], the pIC50 was over 7.00.

The same assay, now with this note: Table 6.
In the case of `COc1cc(C(=O)NN2CCCC2)ccc1Nc1ncc2c(n1)N(C1CCCC1)CC1(CC1)C(=O)N2C` [Example [I-253] of WO 07/095188, reference compound], the pKi (in general, −log10 of the Ki, conventionally taken in molar units) was over 8.00.

In turn, `COc1cc(C(=O)NN2CCN(C)CC2)ccc1Nc1ncc2c(n1)N(C1CCCC1)CC1(CC1)C(=O)N2C` [[254]•HCl, 4-(9′-cyclopentyl-5′-methyl-6′-oxo-5′,6′,8′,9′-tetrahydrospiro[cyclopropane-1,7′-pyrimido[4,5-b][1,4]diazepine]-2′-ylamino)-3-methoxy-N-(4-methylpiperazin-1-yl)benzamide.HCl] gave a pKi of over 8.00.

The values above are taken from US8563542B2 (Cyclacel Limited, priority 2007, dated 2013).
